Experimental data: publication PMC8596843, “Platinum Cyclooctadiene Complexes with Activity against Gram‐positive Bacteria” (Chemmedchem, 2021)
Like-named read-outs stand apart in the source and are kept apart here.

Experiments:
[1] = system: B. subtilis ATCC 6051 type strain; test: MIC in the presence of human serum (serum reversal); type: cell-based, Bacillus subtilis; details: 10% serum
Excerpt: (§1) To obtain some initial insight into the apparent disparity between in vitro and in vivo results, we repeated the MIC experiments against four selected Gram‐positive strains in the presence of 10 % or 50 % human serum (Table S3). Pt1 and Pt2 maintained some antibacterial activity against B. subtilis in the presence of 10 % serum, but a complete loss of activity was observed against MRSA and GISA (50 % serum), and VRE (10 % serum). […] Systemic administration is therefore unlikely to be a suitable administration route for this class of compounds unless an alternative formulation that can prevent serum binding (e. g. by lipid or nanoparticle encapsulation) can be found. […] Further in vivo studies should therefore focus on more suitable disease models. […]
(§2) Antibacterial minimum inhibitory concentration (MIC) assay
(§3) concentration. (in-house screening)
(§4) Bacto Laboratories 212322) at 37 °C overnight.
(§5) The resultant mid-log phase cultures were diluted
(§6) Gram-negative and Gram-positive bacteria, respectively.
(§7) final concentration range of 0.8 – 100 µM.
(§8) inhibitors as positive control. […]

[2] = system: HEK-293 ATCC CRL-1573 human embryonic kidney cells; type: cell-based
Experimental: As part of the CO‐ADD screening, all compounds that show any activity against a microbial strain are evaluated for their cytotoxicity against human embryonic kidney cells (HEK‐293) and for haemolysis against human red blood cells. None of the compounds tested for cytotoxicity (Pt1‐9 and Pd1) caused any significant cell death up to concentrations of 100 μM. […] We have also observed higher IC50 values for the methylated complexes Pt3 and Pt4 against HeLa cells in previous work.[16] […]
(§9) inhibitors as positive control.
(§10) Tamoxifen (Sigma T5648) was used
(§11) as internal control on each plate.
in a Neubauer haemocytometer. […]

[3] = system: Cryptococcus neoformans H99 ATCC 208821; test: Antifungal MIC (CO-ADD screening); type: cell-based
Experimental: (§12) InChIKey: PHIWIZAHOBWKFJ-HPCBIOCFSA-N
(§13) Health Central Pathology. Candida albicans (ATCC 90028, NCCLS 11), Cryptococcus neoformans
as §2, §3, §4

[4] = system: Candida albicans ATCC 90028; test: Antifungal MIC (CO-ADD screening); type: cell-based
Experimental: as §12, §13, §2, §3, §4

[5] = system: Staphylococcus aureus VRS 1, VRSA (VanA); test: Antibacterial MIC assay, Gram-positive panel; type: cell-based; details: Table S1 panel; n=4
Excerpt: (§14) Bis(dimethyl-η4)-((1Z,1'E,5Z,5'E)-(1,1'-bi(cyclooctadiene))diplatinum(II) (Pt14) Smiles: C1C=CCCC(=CC1)C1=CCCC=CCC1.C[Pt]C.C[Pt]C
as §12
(§15) Link to selected data that was repeated to approve the identity of the compounds: https://dx.doi.org/10.14272/PHIWIZAHOBWKFJ-HPCBIOCFSA-N.1
(§16) ATCC strains were sourced from the American Type Culture Collection and NRS strains from NARSA (Network on Antimicrobial Resistance in Staphylococcus aureus) via BEI Resources (www.beiresources.org), with clinical MSSA and MRSA isolates from Prof Graeme Nimmo, Queensland […]
(§17) Health Central Pathology. […]
as §2
(§18) Compound Assay Plate Preparation: Compounds were dissolved in DMSO at 10mM (CO-ADD screening) or 4 mM (follow up screening) and were plated in a 2-fold dose response from 20 to 0.156 µM or 200 to 0.006 µM respectively, with a maximum of 0.5% or 1% DMSO, final in the assay […]
(§19) plated in a 2-fold dose response from 200 to 0.006 µM, with a maximum of 1 % DMSO, final in the assay concentration. (in-house screening)
(§20) For all the bacterial assays, each strain was cultured in Cation-adjusted Mueller Hinton broth (CAMHB; Bacto Laboratories 212322) at 37 °C overnight. A sample of each culture was then diluted 40-fold in fresh CAMHB and incubated at 37 °C for 1.5–3 h. The resultant mid-log phase cultures were diluted with CAMHB (CFU mL−1 measured by OD600), then added to each well of the compound-containing plates (384-well non-binding surface (NBS) plates; Corning CLS3640), giving a cell density of 5 × 10^5 CFU mL−1 and a total volume of 50 μL. Plates were covered and incubated at 37 °C for 18 h without shaking. Inhibition of bacterial growth was determined measuring absorbance at 600 nm (OD600), using media only as negative control and bacteria without inhibitors as positive control. MIC values were determined as the lowest concentration at which the growth was inhibited at ≥80%. Colistin sulfate (Sigma C4461) and vancomycin HCl (Sigma 861987) were used as internal controls on each plate for Gram-negative and Gram-positive bacteria, respectively. […]

[6] = system: Staphylococcus aureus ATCC 25923, MSSA; test: Antibacterial MIC assay, Gram-positive panel; type: cell-based; details: Table S1 panel; n=4
Excerpt: as §14, §12, §15, §16, §17, §2, §18, §19, §20

[7] = system: Enterococcus faecalis ATCC 29212, control strain; test: Antibacterial MIC assay, Gram-positive panel; type: cell-based; details: Table S1 panel; n=4
Experimental: (§21) Smiles: C1C=CCCC(=CC1)C1=CCCC=CCC1.C[Pt]C.C[Pt]C […]
as §16, §17, §2, §18, §19, §20

[8] = system: Staphylococcus epidermidis ATCC 14990, type strain; test: Antibacterial MIC assay, Gram-positive panel; type: cell-based; details: Table S1 panel; n=4
Experimental: as §21, §16, §17, §2, §18, §19, §20

[9] = system: Enterococcus faecalis Clinical Isolate, VRE (VanB); test: Antibacterial MIC assay, Gram-positive panel; type: cell-based; details: Table S1 panel; n=4
Experimental: as §21, §16, §17, §2, §18, §19, §20

[10] = system: Enterococcus faecium ATCC 35667, type strain; test: Antibacterial MIC assay, Gram-positive panel; type: cell-based; details: Table S1 panel; n=4
Experimental: as §21, §16, §17, §2, §18, §19, §20

[11] = system: Enterococcus faecium Clinical Isolate, VRE (VanA); test: Antibacterial MIC assay, Gram-positive panel; type: cell-based; details: Table S1 panel; n=4
Experimental: as §21, §16, §17, §2, §18, §19, §20

[12] = system: Staphylococcus epidermidis NRS 60, VISE; test: Antibacterial MIC assay, Gram-positive panel; type: cell-based; details: Table S1 panel; n=4
Experimental: as §21, §16, §17, §2, §18, §19, §20

[13] = system: Klebsiella pneumoniae ATCC 700603 (ESBL SHV‐18)
Experimental: (§22) All compounds submitted to CO‐ADD are initially screened against five bacterial strains (Staphylococcus aureus (MRSA), E. coli, Klebsiella pneumoniae, Pseudomonas aeruginosa, Acinetobacter baumannii) and two fungal strains (Candida albicans, Cryptococcus neoformans) at a single concentration (32 μg/mL or 20 μM) performed as a high‐throughput primary screening.[[11], [17a]] Any compounds that show significant growth inhibition against any of the tested strains at this step are then evaluated in a dose‐response assay against these same strains. […]
as §21, §16, §17, §2, §18, §19, §20

[14] = system: Staphylococcus aureus ATCC 43300 (MRSA); test: microbe, parasite or virus in culture; type: cell-based; details: for MIC Sa: CO‐ADD screening
Experimental: as §22, §21, §16, §17, §2, §18, §19, §20

[15] = system: E. coli tolC (efflux pump deficient); test: MIC against E. coli membrane mutants; type: cell-based, Escherichia coli
Experimental: as §2, §3, §4, §5, §6, §7, §8

S. aureus NRS 17 GISA = test: MIC in the presence of human serum (serum reversal); type: cell-based, Staphylococcus aureus; details: 50% serum
Excerpt: as §1, §2, §3, §4, §5, §6, §7, §8

[16] = system: S. aureus ATCC 43300 MRSA; test: as above; type: cell-based, Staphylococcus aureus; details: 50% serum
Excerpt: as §1, §2, §3, §4, §5, §6, §7, §8

[17] = system: E. faecium ATCC 51559 MDR, VRE; test: as above; type: cell-based, Enterococcus faecium; details: 10% serum
Excerpt: as §1, §2, §3, §4, §5, §6, §7, §8

[18] = system: Pseudomonas aeruginosa ATCC 27853; test: Antibacterial MIC assay; type: cell-based; details: CO‐ADD screening
Experimental: as §22, §21, §16, §17, §2, §18, §19, §20

[19] = system: Acinetobacter baumannii ATCC 19606; test: Antibacterial MIC assay; type: cell-based; details: CO‐ADD screening
Experimental: as §22, §21, §16, §17, §2, §18, §19, §20

[20] = system: Escherichia coli ATCC 25922; test: Antibacterial MIC assay; type: cell-based; details: CO‐ADD screening
Experimental: as §22, §21, §16, §17, §2, §18, §19, §20

human red blood cells = test: Haemolysis assay; type: cell-based; details: for Haemolysis HC10: concentration inducing 10 % haemolysis; for Haemolysis HC50: concentration inducing 50 % haemolysis
Experimental: As part of the CO‐ADD screening, all compounds that show any activity against a microbial strain are evaluated for their cytotoxicity against human embryonic kidney cells (HEK‐293) and for haemolysis against human red blood cells. None of the compounds tested for cytotoxicity (Pt1‐9 and Pd1) caused any significant cell death up to concentrations of 100 μM. […] We have also observed higher IC50 values for the methylated complexes Pt3 and Pt4 against HeLa cells in previous work.[16]
as §5, §6, §7, §9, §10, §11
in a Neubauer haemocytometer.
incubated for 1 h at 37 °C, without shaking.
HC10 and HC50 (concentration at which 10%
for top, bottom and slope using Prism 8. […]

[21] = system: Enterococcus faecium ATCC 51559, MDR, VRE (VanA); test: Antibacterial MIC assay, Gram-positive panel; type: cell-based; details: Table S1 panel; n=2
Experimental: as §21, §16, §17, §2, §18, §19, §20

[22] = system: Staphylococcus aureus NRS 17, GISA; test: Antibacterial MIC assay, Gram-positive panel; type: cell-based; details: Table S1 panel; n=2
Experimental: as §21, §16, §17, §2, §18, §19, §20

[23] = system: E. coli lpxC (non‐efficient lipid A production mutant); test: MIC against E. coli membrane mutants; type: cell-based, Escherichia coli
Experimental: as §2, §3, §4, §5, §6, §7, §8

Compound: C1=CCCC=CCC1.[CH3][Pt][C](F)(C(F)(F)F)C(F)(F)F [Pt6]
- MIC in the presence of human serum [1]: > 200 µM
- CC50 [2]: > 100 µM
- MIC Cn [3]: 20 µM
- MIC Ca [4]: 20 µM
- MIC [5]: 200 µM
- MIC [6]: 100 µM
- MIC [7]: > 200 µM
- MIC [8]: 100 µM
- MIC [9]: > 200 µM
- MIC [10]: > 200 µM
- MIC [11]: 200 µM
- MIC [12]: 200 µM
- MIC Kp [13]: >20 µM
- MIC Sa [14]: 10 µM
- MIC ([14]; Table S1 panel, n=2): 6.25 µM
- MIC E. coli TolC ([15]; Table S2): > 200 µM
- MIC in the presence of human serum (S. aureus NRS 17 GISA): > 200 µM
- MIC in the presence of human serum [16]: > 200 µM
- MIC in the presence of human serum [17]: > 200 µM
- MIC Pa [18]: >20 µM
- MIC Ab [19]: >20 µM
- MIC Ec [20]: >20 µM
- Haemolysis HC10 (human red blood cells): >100 µM
- Haemolysis HC50 (human red blood cells): >100 µM

Compound: CCC1=CCCC=CCC1.[CH3][Pt][C](F)(F)C(F)(F)C(F)(F)C(F)(F)C(F)(F)C(F)(F)C(F)(F)C(F)(F)F [Pt9]
- MIC in the presence of human serum [1]: > 200 µM
- CC50 [2]: > 100 µM
- MIC Cn [3]: 1.25 µM
- MIC Ca [4]: >20 µM
- MIC [21]: 100 µM
- MIC [22]: 100 µM
- MIC Kp [13]: >20 µM
- MIC Sa [14]: >20 µM
- MIC E. coli TolC ([15]; Table S2): > 200 µM
- MIC E. coli lpxC ([23]; Table S2): > 200 µM
- MIC in the presence of human serum (S. aureus NRS 17 GISA): > 200 µM
- MIC in the presence of human serum [16]: > 200 µM
- MIC in the presence of human serum [17]: > 200 µM
- MIC Pa [18]: >20 µM
- MIC Ab [19]: >20 µM
- MIC Ec [20]: >20 µM
- Haemolysis HC10 (human red blood cells): >100 µM
- Haemolysis HC50 (human red blood cells): >100 µM

Compound: Colistin [reference compound]
- MIC Kp ([13]; CO‐ADD screening, control antibiotic): 0.25 mg/L
- MIC E. coli TolC ([15]; Table S2, colistin control): 0.03 mg/L
- MIC E. coli lpxC ([23]; Table S2, colistin control): 0.03 mg/L
- MIC Pa ([18]; control antibiotic): 0.25 mg/L
- MIC Ab ([19]; control antibiotic): 0.25 mg/L
- MIC Ec ([20]; control antibiotic): 0.125 mg/L
